Laboratory results from US4167580A, “Compositions and method of use to treat arthritic disease with m-fluorobenzimidoylacetonitrile” (American Cyanamid Company, priority 1978, dated 1979).

How the values were obtained:
[1] = test system: Carrageenin Induced Edema of the Rat Paw; experiment: Carrageenin induced edema of the rat paw (acute anti-inflammatory activity); type: in vivo, Royal Hart, Wistar strain rats; conditions: 5 hours after drug (4 hours after carrageenin)
Procedure: In determining the acute anti-inflammatory activity of benzimidoylacetonitrile, Royal Hart, Wistar strain rats ranging in weight from 80 to 90 grams were used. The rats were fasted overnight prior to dosing but had free access to water. The compound was administered in aqueous suspension, by gavage, in a volume of 1.7 ml. per 50 grams of rat [corresponds by hydration volume used by Winter et al., Proc. Soc. […] The phlogistic agent used was carrageenin prepared as a sterile 1% suspension in 0.9% aqueous sodium chloride for routine testing. A volume of 0.05 ml. was injected through a 26 gauge needle into the planter tissue of the right hind paw. Measurements were made 5 hours after drug administration (4 hours after carrageenin challenge). Volumes of both the normal and carrageenin inflamed feet were determined. The difference between the two measurements is considered to be the increased edema due to the carrageenin administration.

[2] = test system: Body Temperature of Pyretic Rats; experiment: Body temperature in yeast induced pyrexia; type: in vivo, Royal Hart, Wistar strain rats; conditions: 250 mg./kg. by gavage 17 hours after yeast; measured 19 hours post challenge
Procedure: The effect of benzimidoylacetonitrile on body temperature in yeast induced pyrexia was determined by the following procedure. Groups of three Royal Hart, Wistar strain rats weighing 80±5 grams were injected subcutaneously in the nape of the neck with 0.6 ml. of a 40% suspension of dried brewers yeast in distilled water. […] At 19 hours post challenge the rectal temperature of each rat was measured with an electric thermometer. Each dose response experiment was replicated one or more times.

[3] = test system: Adjuvant Arthritis in Rats; experiment: Adjuvant induced arthritis in rats (chronic inflammation with joint destruction); type: in vivo, Royal Hart, Wistar strain rats; conditions: once daily days 0-13
Excerpt: Adjuvant induced experimental polyarthritis is a specific systemic disease of the rat which shares interesting similarities with rheumatoid arthritis. Specifically, the histology of the two diseases bears a remarkable resemblance as shown by C. M. Pearson et al., Am. J. Pathol. 42, 73 (1963). E. M. Glenn, Am. J. Vet. Res. 27 (116), 339 (1966) has classified adjuvant induced polyarthritis as a crippling and permanent deformity resulting from diffuse connective tissue involvement around certain susceptible joints in the rat. Zahiri et al., Can. Med. Ass. J. 101, 269 (1969) have shown that the fusiform swelling of the distal joints is associated with edema, congestion and synovitis including pannus formation, all of which precede the ultimate destruction of bone and cartilage. Furthermore, Zahiri et al. indicate that the cartilage destruction in the joint is due to an invasive pannus which originates in the marginal synovium and extends across the articular surface to erode it. […] See S. Wong et al., J. Pharm. & Exptl. Ther. 185, 127 (1973) and G. R. Bobalick et al., Agents & Actions 4, 364 (1974). In a similar manner, inhibition of the progress of arthritis in paws of rats treated with the compounds of this invention also lessens associated joint deterioration.
Groups of three Royal Hart, Wistar strain rats weighing 200±10 grams each were injected intradermally in the right hind paw with Freund's adjuvant (dried human tubercle bacilli in a mineral oil vehicle) at a dose of 2 mg./kg. of body weight. Test compounds were administered orally in a 1.5% staruh vehicle at various doses once daily on days 0 through 13 post challenge. Control rats were treated in a similar manner, but given only starch vehicle. On the 14th and 21st day post challenge the diameter of the injected paw (primary lesion) was measured by micrometer caliper. The volume of inflamed paws were estimated from these measurements and the results are expressed as percent inhibition of swelling as compared to controls. At the same time, the other inflamed sites, such as ears, paws and tail (secondary lesions) were observed and each rat was graded as to degree of inflammation and swelling present. The grading is based on a scale of 0 to 24, where 0 represents a complete absence of induced arthritic nodules and 24 represents the maximum degree of inflammation. The mean grade for each treated group is calculated and the effects of each compound are expressed as percent inhibition of the control grade. Table III records the results of these tests conducted with benzimidoylacetonitrile, m-fluorobenzimidoylacetonitrile and p-fluorobenzimidoylacetonitrile and known anti-inflammatory agents. The active compounds of the present invention suppress the progression of the arthritis and associated joint deterioration. Of particular interest is the low mortality observed with benzimidoylacetonitrile treated rats relative to either controls or rats treated with standard compounds.

Erythema in Guinea Pigs = experiment: Ultraviolet induced erythema in guinea pigs, topical application; type: in vivo, Albino guinea pigs
Procedure: Albino guinea pigs were depilitated on their flanks, the evening before testing, with a standard mixture of barium sulfide and gum acacia. On the morning of the test at 0 hour they were restrained in a plastic container which allows exposure of 3 circular spots. They were then exposed to ultraviolet irradiation from a "Hanovia" Kromayer lamp, model 10, for 60 seconds. Immediately after exposure to ultraviolet light, the guinea pigs were treated by dissolving the test compound in ethyl alcohol at various concentrations and swabbing the UV exposed areas with the aid of a cottom tipped applicator stick. At one and four hours, the degree of erythema for each of the three sites was assessed according to the following scoring system: 0=no erythema, 0.5=incomplete circle or faint erythema and 1.0=complete circle of distinct erythema. Thus, the maximum score for each animal was 3.0.

arthritic paw swelling = conditions: Wong et al. 1973; Bobalick et al. 1974; cited from earlier work
[4] = 1% in ethyl alcohol, maximum score 3.0, ethyl alcohol control 2.5
[5] = 1% in ethyl alcohol, maximum score 3.0, ethyl alcohol control 3.0

With `COc1ccc2c(c1)c(CC(=O)O)c(C)n2C(=O)c1ccc(Cl)cc1` [Indomethacin] the “C/T Edema Ratio (edema of control animals/edema of treated animals)” value ([1]; 25 mg./kg. by gavage) was 2.9, the “Decrease In Body Temp.” value [2] was 2.5 °C and the “% Inhibition of Control Grade (secondary lesion), Day 14” value (from here on “% Inhibition of Control Grade … Day 14”) ([3]; 0.25 mg./kg. oral) was 22%. For the same compound, the “% Inhibition of Control Grade (secondary lesion), Day 21” value (“% Inhibition of Control Grade … Day 21” below) ([3]; 0.25 mg./kg. oral) was 4%, the “% Inhibition of Swelling (primary lesion), Day 14” value (shortened to “% Inhibition of Swelling … Day 14”) ([3]; 0.25 mg./kg. oral) was 30% and the “% Inhibition of Swelling (primary lesion), Day 21” value (from here on “% Inhibition of Swelling … Day 21”) ([3]; 0.25 mg./kg. oral) was 4%. The “Dead/Treated At 21 Days” value ([3]; 0.25 mg./kg. oral) was 0/9, the “Mean Weight Gain, Day 14” value ([3]; 0.25 mg./kg. oral) was 51 grams and the “Mean Weight Gain, Day 21” value ([3]; 0.25 mg./kg. oral) was 57 grams. For the same compound, the “% Inhibition of Control Grade … Day 14” value ([3]; 0.5 mg./kg. oral) was 25%, the “% Inhibition of Control Grade … Day 21” value ([3]; 0.5 mg./kg. oral) was 17% and the “% Inhibition of Swelling … Day 14” value ([3]; 0.5 mg./kg. oral) was 40%. The “% Inhibition of Swelling … Day 21” value ([3]; 0.5 mg./kg. oral) was 20%, the “Dead/Treated At 21 Days” value ([3]; 0.5 mg./kg. oral) was 5/54 and the “Mean Weight Gain, Day 14” value ([3]; 0.5 mg./kg. oral) was 53 grams. For the same compound, the “Mean Weight Gain, Day 21” value ([3]; 0.5 mg./kg. oral) was 51 grams, the “% Inhibition of Control Grade … Day 14” value ([3]; 1 mg./kg. oral) was 34% and the “% Inhibition of Control Grade … Day 21” value ([3]; 1 mg./kg. oral) was 20%. For the same compound, the “% Inhibition of Swelling … Day 14” value ([3]; 1 mg./kg. oral) was 46%, the “% Inhibition of Swelling … Day 21” value ([3]; 1 mg./kg. oral) was 19% and the “Dead/Treated At 21 Days” value ([3]; 1 mg./kg. oral) was 9/54. The “Mean Weight Gain, Day 14” value ([3]; 1 mg./kg. oral) was 63 grams, the “Mean Weight Gain, Day 21” value ([3]; 1 mg./kg. oral) was 65 grams and the “% Inhibition of Control Grade … Day 14” value ([3]; 2 mg./kg. oral) was 38%. The “% Inhibition of Control Grade … Day 21” value ([3]; 2 mg./kg. oral) was 25%, the “% Inhibition of Swelling … Day 14” value ([3]; 2 mg./kg. oral) was 51% and the “% Inhibition of Swelling … Day 21” value ([3]; 2 mg./kg. oral) was 24%. The “Dead/Treated At 21 Days” value ([3]; 2 mg./kg. oral) was 8/57, the “Mean Weight Gain, Day 14” value ([3]; 2 mg./kg. oral) was 68 grams and the “Mean Weight Gain, Day 21” value ([3]; 2 mg./kg. oral) was 68 grams. For the same compound, the “Erythema Score (Avg.) 1 Hr.” value (Erythema in Guinea Pigs; 0.25% in ethyl alcohol, maximum score 3.0, control 2.5) was 1.8, the “Erythema Score (Avg.) 4 Hr.” value (Erythema in Guinea Pigs; 0.25% in ethyl alcohol, maximum score 3.0, control 3.0) was 2.5 and the “Erythema Score (Avg.) 1 Hr.” value (Erythema in Guinea Pigs; 0.5% in ethyl alcohol, maximum score 3.0, control 2.5) was 1.5. For the same compound, the “Erythema Score (Avg.) 4 Hr.” value (Erythema in Guinea Pigs; 0.5% in ethyl alcohol, maximum score 3.0, control 3.0) was 2.4, the “Erythema Score (Avg.) 1 Hr.” value (Erythema in Guinea Pigs; [4]) was 0.7 and the “Erythema Score (Avg.) 4 Hr.” value (Erythema in Guinea Pigs; [5]) was 2.5. For the same compound, the “arthritic paw swelling (in words)” value (arthritic paw swelling) was “inhibit arthritic paw swelling” and the “joint and bone deterioration (in words)” value (arthritic paw swelling) was “prevent joint and bone deterioration”.

In the case of `CCCCC1C(=O)N(c2ccccc2)N(c2ccccc2)C1=O` [Phenylbutazone], the “C/T Edema Ratio (edema of control animals/edema of treated animals)” value ([1]; 250 mg./kg. by gavage) is reported as 2.3, the “Decrease In Body Temp.” value [2] is reported as 1.5 °C and the “% Inhibition of Control Grade … Day 14” value ([3]; 18.8 mg./kg. oral) is reported as 4%. For the same compound, the “% Inhibition of Control Grade … Day 21” value ([3]; 18.8 mg./kg. oral) was 8%, the “% Inhibition of Swelling … Day 14” value ([3]; 18.8 mg./kg. oral) was 31% and the “% Inhibition of Swelling … Day 21” value ([3]; 18.8 mg./kg. oral) was 7%. For the same compound, the “Dead/Treated At 21 Days” value ([3]; 18.8 mg./kg. oral) was 2/21, the “Mean Weight Gain, Day 14” value ([3]; 18.8 mg./kg. oral) was 50 grams and the “Mean Weight Gain, Day 21” value ([3]; 18.8 mg./kg. oral) was 45 grams. The “% Inhibition of Control Grade … Day 14” value ([3]; 37.5 mg./kg. oral) was 18%, the “% Inhibition of Control Grade … Day 21” value ([3]; 37.5 mg./kg. oral) was 13% and the “% Inhibition of Swelling … Day 14” value ([3]; 37.5 mg./kg. oral) was 56%. For the same compound, the “% Inhibition of Swelling … Day 21” value ([3]; 37.5 mg./kg. oral) was 14%, the “Dead/Treated At 21 Days” value ([3]; 37.5 mg./kg. oral) was 5/39 and the “Mean Weight Gain, Day 14” value ([3]; 37.5 mg./kg. oral) was 53 grams. The “Mean Weight Gain, Day 21” value ([3]; 37.5 mg./kg. oral) was 53 grams, the “% Inhibition of Control Grade … Day 14” value ([3]; 75 mg./kg. oral) was 27% and the “% Inhibition of Control Grade … Day 21” value ([3]; 75 mg./kg. oral) was 15%. For the same compound, the “% Inhibition of Swelling … Day 14” value ([3]; 75 mg./kg. oral) was 62%, the “% Inhibition of Swelling … Day 21” value ([3]; 75 mg./kg. oral) was 28% and the “Dead/Treated At 21 Days” value ([3]; 75 mg./kg. oral) was 2/39. For the same compound, the “Mean Weight Gain, Day 14” value ([3]; 75 mg./kg. oral) was 51 grams, the “Mean Weight Gain, Day 21” value ([3]; 75 mg./kg. oral) was 50 grams and the “% Inhibition of Control Grade … Day 14” value ([3]; 150 mg./kg. oral) was 54%. The “% Inhibition of Control Grade … Day 21” value ([3]; 150 mg./kg. oral) was 31%, the “% Inhibition of Swelling … Day 14” value ([3]; 150 mg./kg. oral) was 75% and the “% Inhibition of Swelling … Day 21” value ([3]; 150 mg./kg. oral) was 44%. The “Dead/Treated At 21 Days” value ([3]; 150 mg./kg. oral) was 2/27, the “Mean Weight Gain, Day 14” value ([3]; 150 mg./kg. oral) was 40 grams and the “Mean Weight Gain, Day 21” value ([3]; 150 mg./kg. oral) was 50 grams. For the same compound, the “Erythema Score (Avg.) 1 Hr.” value (Erythema in Guinea Pigs; [4]) was 0.5 and the “Erythema Score (Avg.) 4 Hr.” value (Erythema in Guinea Pigs; [5]) was 2.4.
